Test results published in paper PMC9221018, “Sulfonamide-Derived Dithiocarbamate Gold(I) Complexes Induce the Apoptosis of Colon Cancer Cells by the Activation of Caspase 3 and Redox Imbalance” (Biomedicines, 2022).
Read-outs that look alike come from different tables or passages of the source.

Key:
[1] = system: differentiated Caco-2 cells; experiment: MTT cytotoxicity assay in differentiated Caco-2 cells (healthy cell model); assay type: cell-based, human; details: for decrease of cell viability: complexes at their IC50 (1 1.14 μM, 3 1.7 μM, 8 7.22 μM, 9 8.56 μM), 72 h; for IC50: treatment for 72 h
Procedure: (§1) The human Caco-2 cell line (TC7 clone) was kindly provided by Dr. Edith Brot-Laroche (Université Pierre et Marie Curie-Paris 6, UMR S 872, Les Cordeliers, France). Human epithelial fibroblast cells (NHDF-Ad, Lonza®®, Porriño, Spain) were kindly provided by Dr. Gracia Mendoza (Aragon Health Research Institute, IIS Aragón, Spain). Caco-2 cells (passages 40–70) and fibroblasts (passages 10–30) were maintained in a humidified atmosphere of 5% CO2 at 37 °C and grown in medium following the method used by Quero et al.. The Caco-2 cells were sub-cultured in 25 cm^2 plastic flasks at a density of 1.2 × 10^4 cells/cm^2, while the fibroblasts were sub-cultured on 75 cm^2 plastic flasks at a density of 1 × 10^4 cells/cm^2. The culture medium was replaced every 2 days.
(§2) The gold complexes were diluted in dimethyl sulfoxide (DMSO) as a 10 mM stock solution, and then diluted in cell culture medium at the desired concentrations.
(§3) For the cytotoxicity screening assays, Caco-2 cells were seeded in 96-well plates at a density of 4 × 10^3 cells/well. The culture medium was replaced with medium containing the drug panel 24 h post-seeding, and the cells were incubated for 24, 48 and 72 h. […] In differentiated Caco-2 and fibroblasts, culture medium containing metal gold complexes was added 15 days post-seeding, and the cells were incubated for 72 h. The antiproliferative effect was measured using an MTT assay, as previously described by Mármol et al.. The absorbance at 540/620 nm was measured using a SPECTROstar Nano (BMG Labtech, Ortenberg, Germany). In order to determine the selectivity index (SI), the IC50 value of the differentiated Caco-2 cells was divided by IC50 value in undifferentiated Caco-2, obtaining the ratio of the normal/cancerous cells’ toxicity.

[2] = system: Caco-2 cells; experiment: Mitochondrial membrane potential assay (DilC1); assay type: cell-based, human; details: complex 1 1.14 µM 48 h, complex 8 7.22 µM 72 h
Procedure: Caco-2 cells were seeded in 75 cm^2 flasks at a density of 1 × 10^4 cells/cm^2, and the 24-h post-seeding medium was replaced with medium containing the drug panel; it was then incubated for 48 or 72 h. The cells were then washed twice and resuspended in PBS at a concentration of 10^6 cells/mL before incubation with 5 µL of 10 µM 1,1′,3,3,3′-hexamethylindodicarbo-cyanine iodide (DilC1). After 15 min of incubation at 37 °C, 400 µL PBS was added, and the fluorescence was measured by flow cytometry at an excitation wavelength of 633 nm and an emission of 658 nm with a Beckman Coulter Gallios (Brea, CA, USA) equipped with a blue solid diode laser (488 nm) and a red solid diode laser (635 nm).

[3] = system: caspase-3; experiment: Determination of active caspase 3 by flow cytometry; assay type: cell-based, human; details: Caco-2; complex 1 1.14 µM 48 h, complex 8 7.22 µM 72 h
Procedure: Caco-2 cells were seeded in a 75 cm^2 flask at a density of 1 × 10^4 cells/cm^2; 24 h later, they were exposed to the drug panel for 48 or 72 h. Then, the cells were collected and processed as previously described. Finally, 50 µL of every sample was incubated with 5 µL anti-active caspase-3 (BD Pharmigen, San Diego, CA, USA, Clone C92-605) and 5 µL p53 antibody (Miltenyi, Auburn, CA, USA, Clone REA609). The fluorescence was measured by flow cytometry using a Beckman Coulter Gallios (Brea, CA, USA) equipped with a blue solid diode laser (488 nm) and a red solid diode laser (635 nm). For the caspase-3 determination, the excitation wavelength was set at 488 nm and the emission was set at 525 nm; for the p53 analysis, the excitation was set at 635 nm and the emission was set at 660 nm.

[4] = system: Caco-2 cells; experiment: MTT cytotoxicity assay in undifferentiated Caco-2 cells; assay type: cell-based, human
Procedure: as §1, §2, §3

[5] = system: Caco-2 cells; experiment: Apoptosis measurement, annexin V-FITC/PI flow cytometry; assay type: cell-based, human; details: complex 1 1.14 µM 48 h, complex 8 7.22 µM 72 h
Procedure: Caco-2 cells were seeded in 75 cm^2 flasks at a density of 1 × 10^4 cells/cm^2, then exposed to the drug panel for 48 or 72 h depending on the compound tested, and them stained with annexin V-FITC and sodium iodide propidio according to the manufacturer’s instructions. The cells were then transferred to flow cytometry tubes and washed twice with phosphate-buffered saline (PBS); they were then resuspended in 100 µL annexing V binding buffer (100 mM Hepes/NaOH pH 7.4, […], 2.5 mM CaCl2). In total, 5 µL annexin V-FITC and 5 µL propidium iodide (PI) were added to the tube. After 15 min of incubation at room temperature protected from light, 400 µL annexin binding buffer was added to each sample, and the signal intensity was analyzed within 1 h with Beckman Coulter Gallios (Brea, CA, USA). The data were analyzed with BD FACSDivaTM [59].

[6] = n-octanol-water distribution coefficient, shake-flask method; assay type: physicochemical; details: n-octanol/buffered saline pH 7.4, shake-flask
Procedure: The n-octanol−water coefficients of the complexes were determined using a shake-flask method, as reported previously. Briefly, 100 mL buffered-saline (0.15 M NaCl, 10 mM phosphate [PO4^3−] buffer, pH 7.4) and 100 mL n-octanol were shaken for 72 h. The addition of 1 mg of the complexes followed by the centrifugation and separation of both phases gave two solutions, which were analysed by UV absorbance spectroscopy to determine their concentration in each phase. The corresponding value of log P was defined as log{[compound(organic)]/[compound(aqueous)]}.

[7] = system: Human epithelial fibroblast cells (NHDF-Ad); experiment: MTT viability assay in human epithelial fibroblasts; assay type: cell-based; details: complexes at their IC50 (1 1.14 μM, 3 1.7 μM, 8 7.22 μM, 9 8.56 μM), 72 h
Procedure: as §1, §2, §3

[8] = 24 h incubation, read-out: IC50 24 h
[9] = 48 h incubation, read-out: IC50 48 h
[10] = 72 h incubation, read-out: IC50 72 h
[11] = treatment for 72 h, read-out: IC50

Compound	decrease of cell viability [1]	IC50 [1]	mitochondrial depolarization (cells with disturbed MMP) [2]	percentage of cells with active caspase-3 [3]	IC50 [4, 8]	IC50 [4, 9]	IC50 [4, 10]	IC50 [4, 11]	induction of apoptosis (annexin V/PI) [5]	Log P7.4 [6]	decrease of cell viability [7]
O=S(=O)(NC(=S)[S][Au][PH](c1ccccc1)(c1ccccc1)c1ccccc1)c1ccccc1 [Complex 1, [Au(S2CNHSO2C6H5)(PPh3)]]	did not compromise the viability	12.7 ± 0.47 µM	induced similar mitochondrial depolarization	increased the percentage of cells with active caspase-3	1920 ± 130 nM	1380 ± 210 nM	1140 ± 250 nM	1140 ± 250 nM	capable of inducing apoptosis	0.75	did not compromise the viability
[Au(S2CNHSO2-p-Me-C6H4)(IMePropargyl)] [Complex 8]	did not compromise the viability	46.6 ± 3.26 µM	induced similar mitochondrial depolarization	increased the percentage of cells with active caspase-3	> 50000 nM	37400 ± 7480 nM	7220 ± 380 nM	7220 ± 380 nM	capable of inducing apoptosis	−0.13	did not compromise the viability
